Data reported in patent US20080275023A1, “N-Hydroxyamides Omege-Substituted with Tricyclic Groups as Histone Deacetylase Inhibitors, Their Preparation and Use in Pharmaceutical Formulations” (priority 2005, published 2008).

Assays:
[1] = system: histone deacetylase (HDAC), HeLa nuclear extract; test: Deacetylase activity on nuclear extract of HeLa cells (Fluor de Lys kit); format: biochemical, human; conditions: 0.1 μM compound, percent inhibition relative to control without inhibitor
Experimental: The activity of the compounds as histone deacetylase (HDAC) inhibitors was measured using an in vitro acetylation assay. The compounds were then evaluated as inhibitors of proliferation of human tumor cell cultures.
Deacetylase Activity on Nuclear Extract of Hela Cells (Human Cervical Cancer Cell)
The assay (Fluor de Lys™ kit, BioMol) is divided into two steps: in the first step the substrate which comprises an acetylated lysine residue is reacted with the nuclear extract (HeLa) containing the enzymatic activity in the presence and absence of inhibitors. In the second step a fluorogenic reagent is added which highlights the deacetylated residues. A reduction in fluorescence is obtained where there has been inhibition of the deacetylase activity.

[2] = system: HCT-116 human colon carcinoma cells; test: Cytotoxic activity on culture of human colon carcinoma cells HCT-116 (Alamar Blue); format: cell-based; conditions: HCT-116 cells, 72 hours after addition of compounds, Alamar Blue viability
Experimental: Evaluation of Cytotoxic Activity on Culture of Human Colon Carcinoma Cells HCT-116
Human colon carcinoma cells HCT-116 were seeded onto 96-well plates in RPMI1640 culture medium with added 10% FBS and 2 mM glutamine. 24 hours after seeding, the compounds at different concentrations are added. All the compounds are diluted in DMSO such that the final concentrations on the cultures is no greater than 0.5%. 72 hours after addition of the compounds, cell viability is measured by means of the dye Alamar Blue. The result is expressed as percent survival of the treated relative to the control, treated with carrier alone.

Row | SMILES | % inhib at 0.1 μM [1] [%] | IC50 [2] [nM]
1 | O=C(CCCCCN1C(=O)c2ccccc2S(=O)(=O)c2ccccc21)NO [Example 8, 6-(5,5,11-Trioxo-5,11-dihydro-5λ^6-dibenzo[b,f][1,4]thiazepin-10-yl)-hexanoic acid hydroxyamide] | 73 | 105
2 | COc1ccc2c(c1)N(CCCCCC(=O)NO)C(=O)c1ccccc1S2(=O)=O [Example 9, 6-(8-Methoxy-5,5,11-trioxo-5,11-dihydro-5λ^6-dibenzo[b,f][1,4]thiazepin-10-yl)-hexanoic acid hydroxyamide] | 83 | 40
3 | O=C(CCCCCN1C(=O)c2ccccc2S(=O)(=O)c2ccc(Cl)cc21)NO [Example 10, 6-(8-Chloro-5,5,11-trioxo-5,11-dihydro-5λ^6-dibenzo[b,f][1,4]thiazepin-10-yl)-hexanoic acid hydroxyamide] | 77 | 30
4 | COc1ccc2c(c1)N(CCCCCC(=O)NO)C(=O)c1ccccc1[S+]2[O-] (stereo not shown) [Example 11, 6-(8-Methoxy-5,11-dioxo-5,11-dihydro-5λ^4-dibenzo[b,f][1,4]thiazepin-10-yl)-hexanoic acid hydroxyamide] | 73 | 50
5 | O=C(CCCCCN1C(=O)c2ccccc2Oc2ccccc21)NO [Example 12, 6-(11-Oxo-11H-dibenzo[b,f][1,4]oxazepin-10-yl)-hexanoic acid hydroxyamide] | 66 | 640
6 | COc1ccc2c(c1)N(CCCCCC(=O)NO)C(=O)c1ccccc1O2 [Example 13, 6-(8-Methoxy-11-oxo-11H-dibenzo[b,f][1,4]oxazepin-10-yl)-hexanoic acid hydroxyamide] | 73 | 310
7 | O=C(CCCCCN1C(=O)c2ccccc2Oc2ccc(Cl)cc21)NO [Example 14, 6-(8-Chloro-11-oxo-11H-dibenzo[b,f][1,4]oxazepin-10-yl)-hexanoic acid hydroxyamide] | 65 | 200
8 | O=C(CCCCCCN1C(=O)c2ccccc2Oc2ccccc21)NO [Example 15, 7-(11-Oxo-11H-dibenzo[b,f][1,4]oxazepin-10-yl)-heptanoic acid hydroxyamide] | 62 | 200
9 | O=C(CCCCCN1C(=O)c2cscc2Nc2cc(Cl)c(Cl)cc21)NO [Example 17, 6-(6,7-Dichloro-10-oxo-4H,10H-2-thia-4,9-diaza-benzo[f]azulen-9-yl)-hexanoic acid hydroxyamide] |  | 800
10 | CN(C)c1ccc2c(c1)S(=O)(=O)N(CCCCCC(=O)NO)c1ccccc1N2 [Example 20, 6-(8-Dimethylamino-10,10-dioxo-5,10-dihydro-10λ^6-thia-5,11-diaza-dibenzo[a,d]cyclohepten-11-yl)-hexanoic acid hydroxyamide] | 40 | 390
11 | COc1ccc2c(c1)Nc1ccccc1S(=O)(=O)N2CCCCCC(=O)NO [Example 21, 6-(3-Methoxy-10,10-dioxo-5,10-dihydro-10λ^6-thia-5,11-diaza-dibenzo[a,d]cyclohepten-11-yl)-hexanoic acid hydroxyamide] |  | 290
12 | O=C(CCCCCN1c2ccccc2Oc2ccccc2S1(=O)=O)NO [Example 23, 6-(10,10-Dioxo-10H-5-oxa-10λ^6-thia-11-aza-dibenzo[a,d]cyclohepten-11-yl)-hexanoic acid hydroxyamide] | 48 | 190
13 | O=C(CCCCCN1c2cc(F)ccc2Nc2ccccc2S1(=O)=O)NO [Example 25, 6-(2-Fluoro-10,10-dioxo-5,10-dihydro-10λ^6-thia-5,11-diaza-dibenzo[a,d]cyclohepten-11-yl)-hexanoic acid hydroxyamide] | 42 | 1500
14 | CN(C)c1ccc2c(c1)S(=O)(=O)N(CCCCCC(=O)NO)c1ccc(O)cc1N2 [Example 26, 6-(8-Dimethylamino-3-hydroxy-10,10-dioxo-5,10-dihydro-10λ^6-thia-5,11-diaza-dibenzo[a,d]cyclohepten-11-yl)-hexanoic acid hydroxyamide] | 66 | 1000
15 | COc1ccc2c(c1)Nc1ccc(N(C)C)cc1S(=O)(=O)N2CCCCCC(=O)NO [Example 27, 6-(8-Dimethylamino-3-methoxy-10,10-dioxo-5,10-dihydro-10λ^6-thia-5,11-diaza-dibenzo[a,d]cyclohepten-11-yl)-hexanoic acid hydroxyamide] | 63 | 400
16 | COc1ccc2c(c1)N(CCCCCC(=O)NO)S(=O)(=O)c1ccccc1N2 [Example 29, 6-(2-Methoxy-10,10-dioxo-5,10-dihydro-10λ^6-thia-5,11-diaza-dibenzo[a,d]cyclohepten-11-yl)-hexanoic acid hydroxyamide] | 54 | 900
17 | COc1ccc2c(c1)Nc1ccccc1N(CCCCCC(=O)NO)S2(=O)=O [Example 30, 6-(7-Methoxy-10,10-dioxo-5,10-dihydro-10λ^6-thia-5,11-diaza-dibenzo[a,d]cyclohepten-11-yl)-hexanoic acid hydroxyamide] | 65 | 390
18 | Nc1cccc2c1Nc1ccccc1S(=O)(=O)N2CCCCCC(=O)NO [Example 32, 6-(4-Amino-10,10-dioxo-5,10-dihydro-10λ^6-thia-5,11-diaza-dibenzo[a,d]cyclohepten-11-yl)-hexanoic acid hydroxyamide] | 47 | 2000
